Reference: article PMC12637021, “Talin–tensin3 interactions regulate fibrillar adhesion formation and tensin3 phase separation” (The Journal of Cell Biology, 2025)

B1: endogenous tensin3: endogenous tensin3 in primary human foreskin fibroblasts (protein, UniProt Q68CZ2 1-1445, looked up)
Tensin-3: MEEGHGLDLTYITERIIAVSFPAGCSEESYLHNLQEVTRMLKSKHGDNYLVLNLSEKRYDLTKLNPKIMDVGWPELHAPPLDKMCTICKAQESWLNSNLQHVVVIHCRGGKGRIGVVISSYMHFTNVSASADQALDRFAMKKFYDDKVSALMQPSQKRYVQFLSGLLSGSVKMNASPLFLHFVILHGTPNFDTGGVCRPFLKLYQAMQPVYTSGIYNVGPENPSRICIVIEPAQLLKGDVMVKCYHKKYRSATRDVIFRLQFHTGAVQGYGLVFGKEDLDNASKDDRFPDYGKVELVFSATPEKIQGSEHLYNDHGVIVDYNTTDPLIRWDSYENLSADGEVLHTQGPVDGSLYAKVRKKSSSDPGIPGGPQAIPATNSPDHSDHTLSVSSDSGHSTASARTDKTEERLAPGTRRGLSAQEKAELDQLLSGFGLEDPGSSLKEMTDARSKYSGTRHVVPAQVHVNGDAALKDRETDILDDEMPHHDLHSVDSLGTLSSSEGPQSAHLGPFTCHKSSQNSLLSDGFGSNVGEDPQGTLVPDLGLGMDGPYERERTFGSREPKQPQPLLRKPSVSAQMQAYGQSSYSTQTWVRQQQMVVAHQYSFAPDGEARLVSRCPADNPGLVQAQPRVPLTPTRGTSSRVAVQRGVGSGPHPPDTQQPSPSKAFKPRFPGDQVVNGAGPELSTGPSPGSPTLDIDQSIEQLNRLILELDPTFEPIPTHMNALGSQANGSVSPDSVGGGLRASSRLPDTGEGPSRATGRQGSSAEQPLGGRLRKLSLGQYDNDAGGQLPFSKCAWGKAGVDYAPNLPPFPSPADVKETMTPGYPQDLDIIDGRILSSKESMCSTPAFPVSPETPYVKTALRHPPFSPPEPPLSSPASQHKGGREPRSCPETLTHAVGMSESPIGPKSTMLRADASSTPSFQQAFASSCTISSNGPGQRRESSSSAERQWVESSPKPMVSLLGSGRPTGSPLSAEFSGTRKDSPVLSCFPPSELQAPFHSHELSLAEPPDSLAPPSSQAFLGFGTAPVGSGLPPEEDLGALLANSHGASPTPSIPLTATGAADNGFLSHNFLTVAPGHSSHHSPGLQGQGVTLPGQPPLPEKKRASEGDRSLGSVSPSSSGFSSPHSGSTISIPFPNVLPDFSKASEAASPLPDSPGDKLVIVKFVQDTSKFWYKADISREQAIAMLKDKEPGSFIVRDSHSFRGAYGLAMKVATPPPSVLQLNKKAGDLANELVRHFLIECTPKGVRLKGCSNEPYFGSLTALVCQHSITPLALPCKLLIPERDPLEEIAESSPQTAANSAAELLKQGAACNVWYLNSVEMESLTGHQAIQKALSITLVQEPPPVSTVVHFKVSAQGITLTDNQRKLFFRRHYPVNSVIFCALDPQDRKWIKDGPSSKVFGFVARKQGSATDNVCHLFAEHDPEQPASAIVNFVSKVMIGSPKKV

Key:
tensin3 IDR (mCh-IDR) = experiment: mitochondrial pulldown, talin constructs with mCh-IDR; format: binding, Homo sapiens; settings: TLN1-E1770A-cBAK vs TLN1-WT-cBAK; HEK293T; three replicates
Method: Mitochondrial isolation from HEK293T cells was performed after 24 h of transient expression using a combined method of Qproteome Mitochondria Isolation Kit (QIAGEN) and MACS Mitochondria Isolation Kit (Miltenyi). Cells were collected in ice-cold PBS and aliquoted for the preparation of the whole-cell lysate (wcl) fraction (30%) and the mitochondrial fraction (70%). Cell lysis and homogenization of the mitochondrial fraction were performed according to the manufacturer’s instructions (QIAGEN). Magnetic anti-TOM22 microbeads (Miltenyi) were used to label mitochondria in the homogenized mitochondrial fraction for 1 h at 4°C. The labeled mitochondria were separated from a magnetic column before elution with ice-cold separation buffer (Miltenyi). The eluted mitochondria were washed and centrifuged according to the Miltenyi’s instructions. RIPA buffer (ChromoTek) was used for protein extraction from the wcl and purified mitochondria. Samples were stored at −80°C prior to western blotting.
Samples were mixed with sample buffer (4X, Invitrogen) supplemented with reducing agent (10X, Invitrogen). […] Signals were detected using goat anti-mouse IgG conjugated to IRDye 680RD (1:15,000, ab216776; Abcam) and goat anti-rabbit IgG conjugated to IRDye 800CW (1:15000, ab216773; Abcam) secondary antibodies. […] Western blot analysis and quantification were performed using ImageJ software.

HFF cells = experiment: endogenous tensin3 condensates on soft vs stiff PDMS, HFF cells; format: cell-based, human; settings: 1.5 kPa vs 28 kPa FN-coated PDMS, overnight; n = 33 and 40 cells
Method: Imaging dishes equipped with 40 µm-thick PDMS substrates (1.5 and 28 kPa) were purchased from ibidi. PDMS dishes were coated with 30 μg/ml FN for 1 h, followed by three washes with PBS. Dishes were incubated with DMEM for 10 min to equilibrate before cells were plated and incubated overnight at 37°C.
To establish a correlation between tensin3 expression and condensation formation, a maximum intensity Z-projection was performed on Z-stack images of NIH3T3 cells (step depth 0.2 μm). The integrated fluorescence intensity was measured by normalizing the mean pixel intensity of each cell to the average of all values in cells expressing mCh-TNS3. To measure the condensate coverage in NIH3T3 cells, the images were background-subtracted (rolling ball) and then thresholded. This was followed by the Analyse Particles function in FIJI/ImageJ to select round condensate structures (circularity 0.7–1.0) ([Bussi et al., 2023]; [Dumelie et al., 2024]) with a size larger than 0.1 μm^2. The same settings were applied to quantify the number of condensates in NIH3T3 and HFF cells.

Molecule	increase in IDR pulldown vs WT talin (tensin3 IDR (mCh-IDR)) [%]	increase in tensin3 spheres on soft vs stiff substrate (HFF cells) [fold]
TLN1-E1770A-cBAK: constitutively active talin1 construct	50	–
B1	–	3.6
